The results in this text go back to PubChem BioAssay (NCI).

Holding throughout (test): NCI anticancer screen, dose series, 48 h
Assay [1] deals with EKVX NSCLC.
In assay [2] the test system is PC-3 prostate.
Assay [3] has as its system MALME-3M melanoma.
The subject of assay [4] is CAKI-1 renal.
Assay [5] deals with HS 578T breast.
Assay [6] has as its system SNB-75 CNS.
Assay [7] has as its system T-47D breast.
The subject of assay [8] is HCC-2998 colon.
Assay [9] relates to NCI-H226 lung.
Assay [10] has as its system HCT-15 colon.
The test system of assay [11] is UACC-62 melanoma.

Each structure is given as a SMILES string. Where “and” joins values, the source holds several entries; their conditions need not be identical. Identical values can stand only once.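 96-well plates; 48 h exposure; 5 concentrations. Endpoints by linear interpolation between flanking doses. Not reached: highest tested concentration assigned. Abbreviation: GI50, concentration required for 50% inhibition of growth. TGI denotes the concentration required for complete inhibition of growth.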 Starred links: 1 amine or outer side, 2 acyl side, 3 side chain; linkers in the order of their positions; H or OH if unused. Positions of bridges follow the written chain, without caps; N, C: chain ends. Non-standard residues stand in square brackets, D forms with d. Residues, ends and D or L forms follow the SMILES beside them. Chains are numbered I, II in the order given. Actinocin(1to9) = Cc1c2oc3c(C)ccc(C(=O)[*:2])c3nc-2c(C(=O)[*:1])c(N)c1=O; NMeV = CN[CH](C(=O)O)C(C)C; Sar = CNCC(=O)O

Regarding `O=C(CSc1nc2ccc([N+](=O)[O-])cc2s1)c1ccc2ccccc2c1`, the TGI in assay [1], in assay [2], in [3], in [4], in assay [5] and in [6] was over 100 µM in each case. Besides, the TGI in assay [7], in assay [8], in assay [9], in assay [10] and in assay [11] was over 100 µM in each case.

On to `Nc1ncnc2c1sc1nc3ccccc3n12`, for which the TGI in assay [1] was over 100 µM; in assay [2], over 100 µM; in [3], over 100 µM; in assay [4], over 100 µM; in [5] it was over 96.4 µM; in assay [6] it was over 51.2 µM. Also, the TGI in assay [7], in assay [8], in assay [9], in assay [10] and in assay [11] was over 100 µM in each case.

As to `CCC(C)C1NC(=O)C(NC(=O)c2c3nc4c(C(=O)NC5C(=O)NC(C(C)CC)C(=O)N6CCCC6C(=O)N(C)CC(=O)N(C)C(C(C)C)C(=O)OC5C)ccc(C)c4oc-3c(C)c(=O)c2N)C(C)OC(=O)C(C(C)C)N(C)C(=O)CN(C)C(=O)C2CCCN2C1=O` (stereo not drawn) (I: TIP[Sar][NMeV] / II: TIP[Sar][NMeV]; ester I:1-I:C, II:1-II:C; linker I:N-II:N via Actinocin(1to9); configuration not given here), the TGI in assay [1] was 0.248 µM and 0.0692 µM; in assay [2], 0.13 µM and 0.212 µM; in assay [3] it was 0.0202 µM; in [4] it was 0.0861 µM; in assay [5], 0.0841 µM; in assay [6], 0.0329 µM. Also, the TGI in assay [7] was determined as 0.0122 µM; in assay [8] it was 0.0364 µM; in assay [10] it was 10.3 µM; in [11], 0.0105 µM. Besides, in assay [10], the GI50 is 0.0109 µM.

On to `CC(C)(C)OC(=O)NC(CCCCNC(=O)OCc1ccccc1)C(=O)NCCNc1ccc(NCCNC(=O)C(CCCCNC(=O)OCc2ccccc2)NC(=O)OC(C)(C)C)c2c1C(=O)c1ccccc1C2=O` (stereo not drawn), for which the TGI is over 100 µM in assay [1]; over 100 µM in assay [2]; over 100 µM in [3]; over 100 µM in [4]; over 49.7 µM in [5]; 70.4 µM in [6]. Moreover, the TGI is 28 µM in assay [7]; over 100 µM in [8]; over 100 µM in assay [9]; over 100 µM in [10]; over 100 µM in assay [11].

For `Cn1c(=O)[nH]c2nncnc2c1=O`, the TGI in [1] was 289 µM; in assay [3], 119 µM; in assay [4], 46.5 µM; in assay [6], 117 µM; in assay [8] it was over 442 µM; in [9], 28.7 µM. For the same molecule, the TGI in assay [10] is over 625 µM; in [11], 146 µM.

As for `O=c1[nH]c(Nc2ccc(Cl)c(C(F)(F)F)c2)nc2nc[nH]c12`, the TGI in [1], in assay [2], in [3], in assay [4], in assay [5] and in assay [6] was over 100 µM throughout. The TGI is over 100 µM in [7]; 57.4 µM in assay [8]; over 100 µM in assay [9]; over 100 µM in assay [10]; over 100 µM in assay [11].

Consider `Cc1ccccc1N=Nc1c(O)c(S(=O)(=O)O)cc2cc(S(=O)(=O)O)ccc12`, for which the TGI in assay [1], in assay [2], in assay [3], in assay [4], in assay [5] and in assay [6] was over 100 µM throughout. Further, the TGI in assay [7], in assay [8], in [9], in [10] and in assay [11] was over 100 µM throughout.

Take `COc1ccc(C(=O)C2=NON3OC23C(=O)c2ccc(OC)cc2)cc1` (stereo not drawn): the TGI was 34.1 µM in assay [1]; 25.7 µM in assay [3]; 6.79 µM in assay [4]; 43.6 µM in [6]; 32.8 µM in assay [8]; 33.3 µM in assay [9]. The TGI was determined as 36.6 µM in [10] and 37 µM in [11].

In the case of `COCC1CCCN1c1ccc(C=N/C(C#N)=C(\N)C#N)cc1` (stereo not drawn), the GI50 in assay [1] was over 100 µM; in assay [3], 7.75 µM; in assay [5], over 100 µM; in assay [6] it was 23.2 µM; in assay [7], over 100 µM; in assay [8], over 100 µM. In assay [9], the GI50 was 4.68 µM. For the same molecule, the TGI in assay [1] is over 100 µM; in [3], over 100 µM; in [5], over 100 µM; in [6] it was 58.1 µM; in assay [7], over 100 µM; in [8], over 100 µM. Moreover, in [9], the TGI was over 100 µM.

`OCc1cn(C(c2ccccc2)(c2ccccc2)c2ccccc2)cn1`: the TGI in [2] is over 100 µM; in [4] it was over 100 µM; in [5], 95.7 µM; in assay [6], 68.5 µM; in [7], over 100 µM; in assay [8] it was over 100 µM. Also, the TGI in assay [9] and in [10] was over 100 µM throughout.

On to `COc1ccc2nc3c(C(=O)NCCN(C)C)cccc3cc2c1`, for which the TGI was 6.25 µM in assay [1]; over 21.4 µM in assay [3]; 9 µM in assay [6]; 16.2 µM in [8]; 4.14 µM in [9]; 9.84 µM in assay [10]. Besides, the TGI in [11] was found to be 3.33 µM.

In the case of `COc1nc2[nH]ccc2c(=O)[nH]1`, the TGI in [1] was over 100 µM; in [3], over 100 µM; in assay [4], over 100 µM; in assay [6], over 100 µM; in [8], over 100 µM; in assay [9] it was 9.92 µM.

For `CC(C)(C)OC(=O)n1c2ccccc2c2c(=O)nc(N3CCCCC3)sc21`, the TGI in [1], in assay [2], in assay [3], in assay [4], in assay [5] and in assay [6] was over 100 µM throughout. The TGI in assay [7], in assay [10] and in assay [11] was over 100 µM in each case.

Consider `Nc1c(C(=O)O)nnc2cc(Cl)c(Cl)cc12`, for which the TGI in assay [1], in assay [2], in assay [3], in assay [4], in assay [5] and in assay [6] was over 100 µM throughout. Also, the TGI in assay [7], in assay [8], in [9], in assay [10] and in [11] was over 100 µM each time.

In the case of `COc1cc2oc(=O)ccc2cc1C(=O)CC(C)C`, the TGI is over 100 µM in assay [1]; over 100 µM in assay [2]; 42.8 µM in assay [4]; over 100 µM in assay [5]; over 100 µM in assay [6]; over 100 µM in assay [7]. The TGI in [8], in assay [9], in assay [10] and in [11] was over 100 µM in each case.

For the molecule `CC(=O)OC1CC[C@@]2(C)C(=CC[C@@H]3[C@@H]2CC[C@]2(C)Nc4nn(S(C)(=O)=O)cc4C[C@@H]32)C1` (stereo partly drawn), the TGI in [2] is over 100 µM; in assay [3] it was 78.6 µM; in assay [4], over 100 µM; in assay [5] it was over 100 µM; in assay [6], over 100 µM; in assay [7] it was 54.5 µM. In addition, the TGI in assay [8] is over 100 µM; in assay [9], 92 µM; in [10], 89.4 µM; in assay [11], 50.2 µM.

As to `N#CC12Cc3cc4c(cc3-c3cccc(c31)CCN2C(=O)c1ccccc1)OCO4` (stereo not drawn), the TGI is over 100 µM in [1]; over 100 µM in [3]; 62.8 µM in [6]; over 100 µM in [8]; over 100 µM in assay [9]; over 100 µM in assay [11].

With `C[N+]1(CCC(=O)c2ccco2)CC2CCC(CC2)C1` (stereo not drawn), the TGI in [1], in assay [2], in [3], in [4], in assay [5] and in assay [6] was over 100 µM throughout. In addition, the TGI in [7], in assay [9], in assay [10] and in assay [11] was over 100 µM throughout.

As to `O=c1ccc2nc3cc(Br)ccc3sc-2c1`, the TGI in assay [1], in assay [3], in assay [4], in assay [6], in assay [8] and in assay [9] was over 100 µM throughout. The TGI in assay [10] and in assay [11] was over 100 µM each time.

On to `O=C(O)c1ccc(C(=O)c2ccccc2C(=O)O)cc1C(=O)O`, for which the TGI in assay [1], in [2], in assay [3], in [4], in assay [5] and in assay [6] was over 100 µM each time. The TGI in [7], in assay [8], in assay [9], in assay [10] and in [11] was over 100 µM in each case.

In the case of `COCCNCc1ccc(-c2cc3nccc(Oc4ccc(NC(=S)NC(=O)Cc5ccc(F)cc5)cc4F)c3s2)nc1`, the GI50 in assay [1] is 2.5 µM; in assay [5] it was 1.81 µM; in assay [7], 2.12 µM; in [8] it was 4.68 µM; in [9] it was 1.98 µM. Moreover, the TGI in assay [1] stood at 6.96 µM; in assay [5], 4.91 µM; in assay [7], 5.75 µM; in assay [8] it was 26.9 µM; in [9], 6.48 µM.

Turning to `CN(C)c1ccc(C=Nc2ccc(Oc3ccc(Cl)cc3)c(Cl)c2)cc1`, the TGI in assay [1] was found to be 40.8 µM; in [2] it was 36.2 µM; in [3], 36.8 µM; in assay [4], 67.2 µM; in assay [5], 33.2 µM; in assay [6], 35.6 µM. The TGI was 75.3 µM in [7]; 38.9 µM in assay [8]; 63.4 µM in assay [9]; 41.7 µM in [10]; 36.1 µM in assay [11].
